Test results reported in the supplement of paper PMC10307832.

Legend:
Test in all cases: relative viability (nuclei count vs DMSO), 5 days (fraction); higher = more cells survive
NCI-H1666 = system: NCI-H1666
Summary of the method: (§1)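 Lung cancer cell lines, seeded in 1536-well plates, were treated the following day by pin tool with a single drug or with five library-drug doses (not always all listed) in √10 steps on top of a fixed anchor-drug dose. Cells were fixed and nuclei stained in one step after 5 days, and nuclei were counted. Relative viability is the nuclei count for treated wells divided by that for vehicle wells, reported as medians of duplicate plates.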

NCI-H2087 = system: NCI-H2087
Summary of the method: as §1

NCI-H23 = system: NCI-H23
Summary of the method: as §1

BEN = system: BEN
Summary of the method: as §1

NCI-H2009 = system: NCI-H2009
Summary of the method: as §1

HARA = system: HARA
Summary of the method: as §1

NCI-H2023 = system: NCI-H2023
Summary of the method: as §1

NCI-H441 = system: NCI-H441
Summary of the method: as §1

NCI-H3122 = system: NCI-H3122
Summary of the method: as §1

NCI-H2347 = system: NCI-H2347
Summary of the method: as §1

NCI-H647 = system: NCI-H647
Summary of the method: as §1

NCI-H2126 = system: NCI-H2126
Summary of the method: as §1

NCI-H727 = system: NCI-H727
Summary of the method: as §1

NCI-H650 = system: NCI-H650
Summary of the method: as §1

NCI-H838 = system: NCI-H838
Summary of the method: as §1

NCI-H1993 = system: NCI-H1993
Summary of the method: as §1

201T = system: 201T
Summary of the method: as §1

NCI-H596 = system: NCI-H596
Summary of the method: as §1

EMC-BAC-2 = system: EMC-BAC-2
Summary of the method: as §1

LOU-NH91 = system: LOU-NH91
Summary of the method: as §1

NCI-H1395 = system: NCI-H1395
Summary of the method: as §1

LCLC-103H = system: LCLC-103H
Summary of the method: as §1

HCC-44 = system: HCC-44
Summary of the method: as §1

Question: Which relative viability (NCI-H1666; first compound 0.04 µM) does the source give for `COc1cc(N2CCC(C(N)=O)CC2)ccc1Nc1nc(N)c(Cl)c(Nc2ccccc2S(=O)(=O)C(C)C)n1` [HG-5-88-01] + C[C@]1(O)C[C@@H](c2nc(-c3ccc4ccc(-c5ccccc5)nc4c3)c3c(N)nccn32)C1 [Linsitinib] (partner 1 µM) here?
Answer: 0.958

Question: What about the relative viability (NCI-H1666; first compound 0.1265 µM) of the same compound?
Answer: 0.882

Question: And the relative viability (NCI-H1666; first compound 0.4 µM)?
Answer: 0.93

Question: And the relative viability (NCI-H1666; first compound 1.265 µM)?
Answer: 0.76

Question: And the relative viability (NCI-H1666; first compound 4 µM)?
Answer: 0.581

Question: And the relative viability (NCI-H2087; first compound 0.04 µM)?
Answer: 0.85

Question: And the relative viability (NCI-H2087; first compound 0.1265 µM)?
Answer: 1.07

Question: And the relative viability (NCI-H2087; first compound 0.4 µM)?
Answer: 0.912

Question: What about the relative viability (NCI-H2087; first compound 1.265 µM) of the same compound?
Answer: 0.964

Question: What about the relative viability (NCI-H2087; first compound 4 µM) of the same compound?
Answer: 0.888

Question: And the relative viability (NCI-H23; first compound 0.04 µM)?
Answer: 0.628

Question: And the relative viability (NCI-H23; first compound 0.1265 µM)?
Answer: 0.621

Question: And the relative viability (NCI-H23; first compound 0.4 µM)?
Answer: 0.652

Question: And the relative viability (NCI-H23; first compound 1.265 µM)?
Answer: 0.73

Question: And the relative viability (NCI-H23; first compound 4 µM)?
Answer: 0.61

Question: And the relative viability (BEN; first compound 0.04 µM)?
Answer: 0.817

Question: What about the relative viability (BEN; first compound 0.1265 µM) of the same compound?
Answer: 0.968

Question: What about the relative viability (BEN; first compound 0.4 µM) of the same compound?
Answer: 0.899

Question: And the relative viability (BEN; first compound 1.265 µM)?
Answer: 0.767

Question: And the relative viability (BEN; first compound 4 µM)?
Answer: 1.17

Question: What about the relative viability (NCI-H2009; first compound 0.04 µM) of the same compound?
Answer: 1.23

Question: And the relative viability (NCI-H2009; first compound 0.1265 µM)?
Answer: 1.14

Question: And the relative viability (NCI-H2009; first compound 0.4 µM)?
Answer: 1.23

Question: What about the relative viability (NCI-H2009; first compound 1.265 µM) of the same compound?
Answer: 1.12

Question: What about the relative viability (NCI-H2009; first compound 4 µM) of the same compound?
Answer: 1.17

Question: What about the relative viability (HARA; first compound 0.04 µM) of the same compound?
Answer: 0.946

Question: What about the relative viability (HARA; first compound 0.1265 µM) of the same compound?
Answer: 0.916

Question: What about the relative viability (HARA; first compound 0.4 µM) of the same compound?
Answer: 0.909

Question: And the relative viability (HARA; first compound 1.265 µM)?
Answer: 1

Question: And the relative viability (HARA; first compound 4 µM)?
Answer: 0.92

Question: What about the relative viability (NCI-H2023; first compound 0.04 µM) of the same compound?
Answer: 0.695

Question: What about the relative viability (NCI-H2023; first compound 0.1265 µM) of the same compound?
Answer: 0.683

Question: What about the relative viability (NCI-H2023; first compound 0.4 µM) of the same compound?
Answer: 0.619

Question: And the relative viability (NCI-H2023; first compound 1.265 µM)?
Answer: 0.539

Question: What about the relative viability (NCI-H2023; first compound 4 µM) of the same compound?
Answer: 0.762

Question: And the relative viability (NCI-H441; first compound 0.04 µM)?
Answer: 0.662

Question: What about the relative viability (NCI-H441; first compound 0.1265 µM) of the same compound?
Answer: 0.536

Question: What about the relative viability (NCI-H441; first compound 0.4 µM) of the same compound?
Answer: 0.821

Question: And the relative viability (NCI-H441; first compound 1.265 µM)?
Answer: 0.399

Question: And the relative viability (NCI-H441; first compound 4 µM)?
Answer: 0.586

Question: And the relative viability (NCI-H3122; first compound 0.04 µM)?
Answer: 0.914

Question: What about the relative viability (NCI-H3122; first compound 0.1265 µM) of the same compound?
Answer: 0.379

Question: What about the relative viability (NCI-H3122; first compound 0.4 µM) of the same compound?
Answer: 0.197

Question: What about the relative viability (NCI-H3122; first compound 1.265 µM) of the same compound?
Answer: 0.2

Question: What about the relative viability (NCI-H3122; first compound 4 µM) of the same compound?
Answer: 0.226

Question: And the relative viability (NCI-H2347; first compound 0.04 µM)?
Answer: 0.988

Question: And the relative viability (NCI-H2347; first compound 0.1265 µM)?
Answer: 0.933

Question: What about the relative viability (NCI-H2347; first compound 0.4 µM) of the same compound?
Answer: 1.1

Question: And the relative viability (NCI-H2347; first compound 1.265 µM)?
Answer: 0.959

Question: What about the relative viability (NCI-H2347; first compound 4 µM) of the same compound?
Answer: 1.03

Question: And the relative viability (NCI-H647; first compound 0.04 µM)?
Answer: 1.21

Question: And the relative viability (NCI-H647; first compound 0.1265 µM)?
Answer: 1.38

Question: What about the relative viability (NCI-H647; first compound 1.265 µM) of the same compound?
Answer: 1.08

Question: And the relative viability (NCI-H647; first compound 4 µM)?
Answer: 1.12

Question: What about the relative viability (NCI-H2126; first compound 0.04 µM) of the same compound?
Answer: 0.641

Question: And the relative viability (NCI-H2126; first compound 0.1265 µM)?
Answer: 0.76

Question: And the relative viability (NCI-H2126; first compound 0.4 µM)?
Answer: 0.721

Question: And the relative viability (NCI-H2126; first compound 1.265 µM)?
Answer: 0.69

Question: And the relative viability (NCI-H2126; first compound 4 µM)?
Answer: 0.716

Question: And the relative viability (NCI-H727; first compound 0.04 µM)?
Answer: 0.337

Question: What about the relative viability (NCI-H727; first compound 0.1265 µM) of the same compound?
Answer: 0.336

Question: And the relative viability (NCI-H727; first compound 0.4 µM)?
Answer: 0.179

Question: What about the relative viability (NCI-H727; first compound 1.265 µM) of the same compound?
Answer: 0.221

Question: And the relative viability (NCI-H727; first compound 4 µM)?
Answer: 0.324

Question: What about the relative viability (NCI-H650; first compound 0.04 µM) of the same compound?
Answer: 1.01

Question: What about the relative viability (NCI-H650; first compound 0.1265 µM) of the same compound?
Answer: 0.985

Question: And the relative viability (NCI-H650; first compound 0.4 µM)?
Answer: 0.835

Question: And the relative viability (NCI-H650; first compound 1.265 µM)?
Answer: 0.936

Question: And the relative viability (NCI-H650; first compound 4 µM)?
Answer: 0.492

Question: What about the relative viability (NCI-H838; first compound 0.04 µM) of the same compound?
Answer: 0.972

Question: And the relative viability (NCI-H838; first compound 0.1265 µM)?
Answer: 1.07

Question: And the relative viability (NCI-H838; first compound 0.4 µM)?
Answer: 0.885

Question: And the relative viability (NCI-H838; first compound 1.265 µM)?
Answer: 0.915

Question: And the relative viability (NCI-H838; first compound 4 µM)?
Answer: 0.956

Question: And the relative viability (NCI-H1993; first compound 0.04 µM)?
Answer: 0.807

Question: What about the relative viability (NCI-H1993; first compound 0.1265 µM) of the same compound?
Answer: 0.697

Question: What about the relative viability (NCI-H1993; first compound 0.4 µM) of the same compound?
Answer: 0.732

Question: And the relative viability (NCI-H1993; first compound 1.265 µM)?
Answer: 0.61

Question: What about the relative viability (NCI-H1993; first compound 4 µM) of the same compound?
Answer: 0.722

Question: What about the relative viability (201T; first compound 0.04 µM) of the same compound?
Answer: 1.02

Question: And the relative viability (201T; first compound 0.1265 µM)?
Answer: 1.04

Question: And the relative viability (201T; first compound 0.4 µM)?
Answer: 1.04

Question: And the relative viability (201T; first compound 1.265 µM)?
Answer: 0.945

Question: What about the relative viability (201T; first compound 4 µM) of the same compound?
Answer: 1.19

Question: And the relative viability (NCI-H596; first compound 0.04 µM)?
Answer: 1

Question: And the relative viability (NCI-H596; first compound 0.1265 µM)?
Answer: 1.12

Question: What about the relative viability (NCI-H596; first compound 0.4 µM) of the same compound?
Answer: 1.2

Question: What about the relative viability (NCI-H596; first compound 1.265 µM) of the same compound?
Answer: 1.13

Question: What about the relative viability (NCI-H596; first compound 4 µM) of the same compound?
Answer: 1.17

Question: And the relative viability (EMC-BAC-2; first compound 0.04 µM)?
Answer: 0.79

Question: What about the relative viability (EMC-BAC-2; first compound 0.1265 µM) of the same compound?
Answer: 0.849

Question: And the relative viability (EMC-BAC-2; first compound 0.4 µM)?
Answer: 0.771

Question: What about the relative viability (EMC-BAC-2; first compound 1.265 µM) of the same compound?
Answer: 0.758

Question: And the relative viability (EMC-BAC-2; first compound 4 µM)?
Answer: 0.851

Question: And the relative viability (LOU-NH91; first compound 0.04 µM)?
Answer: 1

Question: What about the relative viability (LOU-NH91; first compound 0.1265 µM) of the same compound?
Answer: 0.916

Question: What about the relative viability (LOU-NH91; first compound 0.4 µM) of the same compound?
Answer: 0.841

Question: And the relative viability (LOU-NH91; first compound 1.265 µM)?
Answer: 0.609

Question: What about the relative viability (LOU-NH91; first compound 4 µM) of the same compound?
Answer: 0.659

Question: What about the relative viability (NCI-H1395; first compound 0.04 µM) of the same compound?
Answer: 1.13

Question: And the relative viability (NCI-H1395; first compound 0.1265 µM)?
Answer: 1.02

Question: And the relative viability (NCI-H1395; first compound 0.4 µM)?
Answer: 1.07

Question: And the relative viability (NCI-H1395; first compound 1.265 µM)?
Answer: 0.856

Question: And the relative viability (NCI-H1395; first compound 4 µM)?
Answer: 1.09

Question: And the relative viability (LCLC-103H; first compound 0.04 µM)?
Answer: 0.986

Question: And the relative viability (LCLC-103H; first compound 0.1265 µM)?
Answer: 1.18

Question: And the relative viability (LCLC-103H; first compound 0.4 µM)?
Answer: 1.03

Question: What about the relative viability (LCLC-103H; first compound 1.265 µM) of the same compound?
Answer: 1.03

Question: What about the relative viability (LCLC-103H; first compound 4 µM) of the same compound?
Answer: 1.21

Question: What about the relative viability (HCC-44; first compound 0.04 µM) of the same compound?
Answer: 0.806

Question: And the relative viability (HCC-44; first compound 0.1265 µM)?
Answer: 0.672

Question: And the relative viability (HCC-44; first compound 0.4 µM)?
Answer: 0.56

Question: What about the relative viability (HCC-44; first compound 1.265 µM) of the same compound?
Answer: 0.648

Question: And the relative viability (HCC-44; first compound 4 µM)?
Answer: 0.751
